Experimental data taken from publication PMC6442119, “The antitumor activity of CYB-L10, a human topoisomerase IB catalytic inhibitor” (Journal of Enzyme Inhibition and Medicinal Chemistry, 2019).

How the values were obtained:
Assay in all cases: NCI60 assay
Format in all cases: cell-based
K-562 = settings: Homo sapiens, K562; Leukemia, K-562, 48 h
Procedure: (§1) CYB-L10 was tested using the protocols by the NCI, which has been described previously. […] The overall antiproliferative potential is quantified as a mean-graph midpoint (MGM). […] It was selected and submitted to National Cancer Institute (NCI, USA) for a developmental therapeutics assay against the 60 clinical tumor cell lines representing nine tissue types (NCI60)[23–25]. The tumor cells were incubated with CYB-L10 for 48 h and stained with sulphorhodamine B dye. Cell growth inhibition (GI50) was calculated relative to the control without compound.

CCRF-CEM = settings: Homo sapiens, Leukemia, 48 h
Procedure: as §1

HS 578T = settings: Homo sapiens, Breast cancer, 48 h
Procedure: as §1

SF-539 = settings: Homo sapiens; CNS cancer, SF-539, 48 h
Procedure: as §1

RXF 393 = settings: Homo sapiens; Renal cancer, RXF 393, 48 h
Procedure: as §1

HOP-62 = settings: Homo sapiens; Non-small cell lung cancer, HOP-62, 48 h
Procedure: as §1

HCT-15 = settings: Homo sapiens; Colon cancer, HCT-15, 48 h
Procedure: as §1

UACC-257 = settings: Homo sapiens; Melanoma, UACC-257, 48 h
Procedure: as §1

TK-10 = settings: Homo sapiens; Renal cancer, TK-10, 48 h
Procedure: as §1

CAKI-1 = settings: Homo sapiens; Renal cancer, CAKI-1, 48 h
Procedure: as §1

SNB-19 = settings: Homo sapiens; CNS cancer, SNB-19, 48 h
Procedure: as §1

SK-OV-3 = settings: Homo sapiens; Ovarian cancer, SK-OV-3, 48 h
Procedure: as §1

HCC-2998 = settings: Homo sapiens; Colon cancer, HCC-2998, 48 h
Procedure: as §1

SF-295 = settings: Homo sapiens; CNS cancer, SF-295, 48 h
Procedure: as §1

SK-MEL-5 = settings: Homo sapiens; Melanoma, SK-MEL-5, 48 h
Procedure: as §1

OVCAR-8 = settings: Homo sapiens; Ovarian cancer, OVCAR-8, 48 h
Procedure: as §1

A549/ATCC = settings: Homo sapiens, Non-small cell lung cancer, 48 h
Procedure: as §1

NCI-H460 = settings: Homo sapiens; Non-small cell lung cancer, NCI-H460, 48 h
Procedure: as §1

COLO 205 = settings: Homo sapiens; Colon cancer, COLO 205, 48 h
Procedure: as §1

NCI-H23 = settings: Homo sapiens; Non-small cell lung cancer, NCI-H23, 48 h
Procedure: as §1

OVCAR-4 = settings: Homo sapiens; Ovarian cancer, OVCAR-4, 48 h
Procedure: as §1

OVCAR-3 = settings: Homo sapiens; Ovarian cancer, OVCAR-3, 48 h
Procedure: as §1

LOX IMVI = settings: Homo sapiens, Melanoma, 48 h
Procedure: as §1

MDA-MB-468 = settings: Homo sapiens; Breast cancer, MDA-MB-468, 48 h
Procedure: as §1

786-0 = settings: Homo sapiens; Renal cancer, 786-0, 48 h
Procedure: as §1

MDA-MB-435 = settings: Homo sapiens; Melanoma, MDA-MB-435, 48 h
Procedure: as §1

SK-MEL-2 = settings: Homo sapiens; Melanoma, SK-MEL-2, 48 h
Procedure: as §1

M14 = settings: Homo sapiens; Melanoma, M14, 48 h
Procedure: as §1

NCI-H226 = settings: Homo sapiens; Non-small cell lung cancer, NCI-H226, 48 h
Procedure: as §1

MDA-MB-231/ATCC = settings: Homo sapiens, Breast cancer, 48 h
Procedure: as §1

SK-MEL-28 = settings: Homo sapiens; Melanoma, SK-MEL-28, 48 h
Procedure: as §1

U251 = settings: Homo sapiens, U-251; CNS cancer, U251, 48 h
Procedure: as §1

RPMI-8226 = settings: Homo sapiens; Leukemia, RPMI-8226, 48 h
Procedure: as §1

NCI/ADR-RES = settings: Homo sapiens, Ovarian cancer, 48 h
Procedure: as §1

PC-3 = settings: Homo sapiens; Prostate cancer, PC-3, 48 h
Procedure: as §1

MCF7 = settings: Homo sapiens, Breast cancer, MCF7, 48 h
Procedure: as §1

SR = settings: Homo sapiens, Leukemia, 48 h
Procedure: as §1

A498 = settings: Homo sapiens; Renal cancer, A498, 48 h
Procedure: as §1

DU-145 = settings: Homo sapiens, Prostate cancer, DU-145, 48 h
Procedure: as §1

NCI-H522 = settings: Homo sapiens; Non-small cell lung cancer, NCI-H522, 48 h
Procedure: as §1

Q: `O=C1c2cccnc2C(=O)c2c1c(C(=O)OCCN1CCOCC1)c1ccccn21` [CYB-L10] was tested. Which GI50 (K-562) did it give?
A: The GI50 was 28.2 nM.

Q: What about the GI50 (CCRF-CEM) of the same compound?
A: The GI50 was 379 nM.

Q: And the GI50 (HS 578T)?
A: The GI50 was 36.9 nM.

Q: What about the GI50 (SF-539) of the same compound?
A: The GI50 was less than 10 nM.

Q: What about the GI50 (RXF 393) of the same compound?
A: Its GI50 is 35.1 nM.

Q: And the GI50 (HOP-62)?
A: The GI50 was less than 10 nM.

Q: What about the GI50 (HCT-15) of the same compound?
A: Its GI50 is 39.5 nM.

Q: What about the GI50 (UACC-257) of the same compound?
A: Its GI50 is 54.6 nM.

Q: And the GI50 (TK-10)?
A: The GI50 was 361 nM.

Q: And the GI50 (CAKI-1)?
A: The GI50 was 33.9 nM.

Q: And the GI50 (SNB-19)?
A: The GI50 was less than 10 nM.

Q: And the GI50 (SK-OV-3)?
A: Its GI50 is less than 10 nM.

Q: And the GI50 (HCC-2998)?
A: The GI50 was 252 nM.

Q: What about the GI50 (SF-295) of the same compound?
A: The GI50 was 25.7 nM.

Q: And the GI50 (SK-MEL-5)?
A: The GI50 was 28.5 nM.

Q: And the GI50 (OVCAR-8)?
A: The GI50 was 28.1 nM.

Q: And the GI50 (A549/ATCC)?
A: The GI50 was 20.5 nM.

Q: And the GI50 (NCI-H460)?
A: The GI50 was less than 10 nM.

Q: What about the GI50 (COLO 205) of the same compound?
A: Its GI50 is 137 nM.

Q: And the GI50 (NCI-H23)?
A: Its GI50 is less than 10 nM.

Q: What about the GI50 (OVCAR-4) of the same compound?
A: Its GI50 is 1220 nM.

Q: What about the GI50 (OVCAR-3) of the same compound?
A: The GI50 was 170 nM.

Q: And the GI50 (LOX IMVI)?
A: The GI50 was less than 10 nM.

Q: And the GI50 (MDA-MB-468)?
A: Its GI50 is 1820 nM.

Q: And the GI50 (786-0)?
A: The GI50 was 29 nM.

Q: And the GI50 (MDA-MB-435)?
A: The GI50 was 64.6 nM.

Q: And the GI50 (SK-MEL-2)?
A: Its GI50 is 46.2 nM.

Q: And the GI50 (M14)?
A: The GI50 was less than 10 nM.

Q: And the GI50 (NCI-H226)?
A: Its GI50 is 28.9 nM.

Q: And the GI50 (MDA-MB-231/ATCC)?
A: The GI50 was 1620 nM.

Q: And the GI50 (SK-MEL-28)?
A: Its GI50 is 54.6 nM.

Q: And the GI50 (U251)?
A: The GI50 was 10.9 nM.

Q: And the GI50 (RPMI-8226)?
A: The GI50 was 166 nM.

Q: What about the GI50 (NCI/ADR-RES) of the same compound?
A: Its GI50 is 36.8 nM.

Q: What about the GI50 (PC-3) of the same compound?
A: The GI50 was 190 nM.

Q: And the GI50 (MCF7)?
A: The GI50 was less than 10 nM.

Q: What about the GI50 (SR) of the same compound?
A: Its GI50 is less than 10 nM.

Q: What about the GI50 (A498) of the same compound?
A: The GI50 was 34.3 nM.

Q: And the GI50 (DU-145)?
A: The GI50 was 30.5 nM.

Q: What about the GI50 (NCI-H522) of the same compound?
A: The GI50 was 11.9 nM.
